# Reference: paper PMC4395004 (Pharmaceutical research, 2013)
# Assay: PK study of P-S after topical
# Assay type: in vivo, rat
# Conditions: for Tmax: LEW/crlBR, rat, po, 50 mg/kg
# [1] = oral gavage P-S 50 mg/kg single dose, blood
# [2] = oral gavage P-S 50 mg/kg single dose, muscle
# [3] = topical PSH, single dose P-S 50 mg/kg on both hind legs, muscle
# [4] = topical PSH, single dose P-S 50 mg/kg, blood
# [5] = topical PSH, single dose P-S 50 mg/kg, muscle
Structure (SMILES),Tmax (blood),Tmax (muscle),"AUC0–24h, blood [1]","Cmax, blood [1]","AUC0–24h, muscle [2]","Cmax, muscle [2]","Cmax, muscle [3]","AUC0–24h, blood [4]","Cmax, blood [4]","AUC0–24h, muscle [5]","muscle Cmax (topical PSH, muscle)","Tmax, blood [1]","Tmax, muscle [2]","Tmax, blood [4]","Tmax, muscle [5]"
"CC1=C(CC(=O)O)c2cc(F)ccc2/C1=C\c1ccc([S+](C)[O-])cc1 (stereo not shown) [Sulindac, sulindac, reference compound]",2 h,8 h,405 (nmole/g)*h,33 nmol/g,296 (nmole/g)*h,20 nmol/g,31 nmol/g,245 (nmole/g)*h,18 nmol/g,399 (nmole/g)*h,≤ 31 nmole/g tissue,–,–,–,–
"CSc1ccc(/C=C2/C(C)=C(CC(=O)O)c3cc(F)ccc32)cc1 [S.sulfide, sulindac sulfide]",8 h,8 h,156 (nmole/g)*h,13 nmol/g,158 (nmole/g)*h,13 nmol/g,2 nmol/g,122 (nmole/g)*h,10 nmol/g,18 (nmole/g)*h,≤ 31 nmole/g tissue,–,–,–,–
"CC1=C(CC(=O)O)c2cc(F)ccc2/C1=C\c1ccc(S(C)(=O)=O)cc1 [S.sulfone, sulindac sulfone]",–,–,–,52 nmol/g,764 (nmole/g)*h,40 nmol/g,12 nmol/g,400 (nmole/g)*h,23 nmol/g,170 (nmole/g)*h,≤ 31 nmole/g tissue,8 h,8 h,8 h,24 h
